Laboratory results published in article PMC6982817, “Substituted N-(Pyrazin-2-yl)benzenesulfonamides; Synthesis, Anti-Infective Evaluation, Cytotoxicity, and In Silico Studies” (Molecules, 2019).
In brackets after ≈: the same amount, converted by molar mass. Read-outs that look alike come from different tables or passages of the source.

Legend:
[1] = tested on: M. avium ssp. avium CNCTC My 80/72 (ATCC 15769); test: Antimycobacterial microplate alamar blue assay, M. avium; type: cell-based, Mycobacterium avium; settings: for MIC: Mycobacterium avium
[2] = tested on: Mycobacterium tuberculosis H37Rv CNCTC My 331/88 (ATCC 27294); test: Antimycobacterial microplate alamar blue assay, M. tuberculosis H37Rv; type: cell-based; settings: for MIC: Mycobacterium tuberculosis; for Antimycobacterial Activity MIC Mtb H37Rv: Middlebrook 7H9 broth pH 6.6, alamar blue
[3] = tested on: Mycobacterium smegmatis DSM 43465 (ATCC 607); test: Antimycobacterial microdilution assay, M. smegmatis; type: cell-based; settings: Middlebrook 7H9 broth, resazurin after 48 hours; for MIC: Mycolicibacterium smegmatis, 48 h, read-out: Antimycobacterial Activity MIC M. smeg
[4] = tested on: Mycobacterium aurum DSM 43999 (ATCC 23366); test: Antimycobacterial microdilution assay, M. aurum; type: cell-based; settings: Middlebrook 7H9 broth, resazurin after 72 hours; for MIC: Mycolicibacterium aurum, 72 h
in vitro = settings: human
[5] = tested on: M. kansasii CNCTC My 235/80 (ATCC 12478); test: Antimycobacterial microplate alamar blue assay, M. kansasii; type: cell-based, Mycobacterium kansasii; settings: for MIC: Mycobacterium kansasii; for Antimycobacterial Activity MIC M. kansasii: Middlebrook 7H9 broth pH 6.6, alamar blue
[6] = ATCC15769, pH 6.6, Middlebrook 7H9 broth pH 6.6, alamar blue, read-out: Antimycobacterial Activity MIC M. avium
[7] = pH 6.6, Middlebrook 7H9 broth pH 6.6, alamar blue, read-out: Antimycobacterial Activity MIC Mtb H37Rv
[8] = ATCC12478, pH 6.6, Middlebrook 7H9 broth pH 6.6, alamar blue, read-out: Antimycobacterial Activity MIC M. kansasii
[9] = ATCC12478, molar value printed beside μg/mL in text, read-out: MIC M. kansasii

Structure (SMILES)	MIC [1, 6]	MIC [2, 7]	MIC [3]	MIC [4]	IC50 at 24 h (in vitro)	melting point	MIC [5, 8]	Antimycobacterial Activity MIC Mtb H37Rv [2]	MIC ([2]; pH 6.6, read-out: Antimycobacterial Activity MIC Mtb H37Rv)	MIC ([2]; Table 4 comparison, title compounds, read-out: Antimycobacterial Activity MIC against Mtb H37Rv, Sulfonamide)	MIC [5, 9]	MIC ([1]; ATCC15769, molar value printed beside μg/mL in text, read-out: MIC M. avium)	MIC ([2]; read-out: MIC Mtb H37Rv)	Antimycobacterial Activity MIC M. kansasii [5]	Antimycobacterial Activity MIC M. avium ([1]; Middlebrook 7H9 broth pH 6.6, alamar blue)	Antimycobacterial Activity MIC M. smeg [3]	Antimycobacterial Activity MIC M. aurum [4]
O=S(=O)(Nc1cnccn1)c1ccc(C(F)(F)F)cc1 [Compound 5a, N-(pyrazin-2-yl)-4-(trifluoromethyl)benzenesulfonamide]	> 100 µg/mL	> 100 µg/mL	250 µg/mL (≈ 824 µM)	250 µg/mL (≈ 824 µM)	> 1000 µM	154.3 to 155.5 °C	50 µg/mL										
Cc1cc(C)c(C)c(S(=O)(=O)Nc2cnccn2)c1C [Compound 10a, 2,3,5,6-tetramethyl-N-(pyrazin-2-yl)benzenesulfonamide]	> 100 µg/mL	> 100 µg/mL	≥ 500 µg/mL	≥ 500 µg/mL	> 250 µM	221 to 223.7 °C	50 µg/mL										
O=S(=O)(Nc1cncc(Cl)n1)c1ccc(C(F)(F)F)cc1 [Compound 5b, N-(6-chloropyrazin-2-yl)-4-(trifluoromethyl)benzenesulfonamide]	> 100 µg/mL	100 µg/mL	250 µg/mL (≈ 740 µM)	250 µg/mL (≈ 740 µM)	364 µM	125 to 127.2 °C	> 100 µg/mL										
Cc1cc(C)cc(S(=O)(=O)Nc2cncc(Cl)n2)c1 [Compound 8b, N-(6-chloropyrazin-2-yl)-3,5-dimethylbenzenesulfonamide]	50 µg/mL	50 µg/mL	≥ 500 µg/mL	≥ 500 µg/mL	523 µM		> 100 µg/mL										
NS(=O)(=O)c1ccccc1 [Benzenesulfonamide, benzenesulfonamide]								completely inactive	> 100 µg/mL								
O=S(=O)(Nc1cnccn1)c1ccccc1 [Compound 1a, N-(pyrazin-2-yl)benzenesulfonamide]	> 100 µg/mL	> 100 µg/mL	≥ 250 µg/mL	≥ 500 µg/mL	> 1000 µM	203 to 205 °C	100 µg/mL			> 100 µg/mL							
O=S(=O)(Nc1cncc(Cl)n1)c1ccc(-c2ccccc2)cc1 [Compound 12b, N-(6-chloropyrazin-2-yl)-[1,1′-biphenyl]-4-sulfonamide]	> 100 µg/mL	100 µg/mL	≥ 500 µg/mL	≥ 500 µg/mL	302 µM	229.3 to 230.3 °C	12.5 µg/mL				36.1 µM						
Nc1ccc(S(=O)(=O)Nc2cncc(Cl)n2)cc1 [Compound 4b, 4-amino-N-(6-chloropyrazin-2-yl)benzenesulfonamide]	25 µg/mL	6.25 µg/mL	≥ 500 µg/mL	250 µg/mL (≈ 878 µM)	> 500 µM	234.7 to 236.1 °C	12.5 µg/mL				44 µM	88 µM	22 µM				
Cc1cc(C)cc(S(=O)(=O)Nc2cnccn2)c1 [Compound 8a, 3,5-dimethyl-N-(pyrazin-2-yl)benzenesulfonamide]	> 100 µg/mL	> 100 µg/mL	≥ 500 µg/mL	250 µg/mL (≈ 949 µM)	> 500 µM	184 to 187 °C	50 µg/mL										
O=S(=O)(Nc1cnccn1)c1ccc(-c2ccccc2)cc1 [Compound 12a, N-(pyrazin-2-yl)-[1,1′-biphenyl]-4-sulfonamide]	> 100 µg/mL	100 µg/mL	≥ 500 µg/mL	≥ 500 µg/mL	> 250 µM		100 µg/mL				321 µM						
Nc1ccc(S(=O)(=O)Nc2cnccn2)cc1 [Compound 4a, 4-amino-N-(pyrazin-2-yl)benzenesulfonamide]	100 µg/mL	6.25 µg/mL	≥ 500 µg/mL	250 µg/mL (≈ 999 µM)	776 µM						6.2 µM		25 µM				
O=S(=O)(Nc1cnccn1)c1ccc2c(c1)OCCO2 [Compound 11a, N-(pyrazin-2-yl)-2,3-dihydrobenzo[b][1,4]dioxine-6-sulfonamide]	> 100 µg/mL	> 100 µg/mL	≥ 500 µg/mL	250 µg/mL (≈ 852 µM)	> 1000 µM	264 to 267.1 °C	> 100 µg/mL				> 305 µM			>100 µg/mL			
Nc1ccc(S(=O)(=O)Nc2cncc(Cl)n2)cc1 [Sulfaclozine, reference compound]								6.25 µg/mL						12.5 µg/mL	25 µg/mL	250 µg/mL	250 µg/mL
